The results in this text go back to ChEMBL document CHEMBL1201862, “PubChem BioAssay data set” (2004).

Calls of active or inactive are those of the source. A value given as a limit tells only on which side of the number the result lay.

Broadly, the IC50 is the concentration at which inhibition is half-maximal. A word on the AC50: it is the concentration at which the activity in the assay is half-maximal.

The target of one test is Protein Wnt-3a (Mus musculus, UniProt P27467). Briefly: SAR analysis of small molecule antagonists of Gli-SUFU in a Wnt3a luminescent reporter assay. The test is classed as functional. For orientation: A reporter such as luciferase makes a cellular process visible.
Protein Wnt-3a, sequence (P27467 whole entry): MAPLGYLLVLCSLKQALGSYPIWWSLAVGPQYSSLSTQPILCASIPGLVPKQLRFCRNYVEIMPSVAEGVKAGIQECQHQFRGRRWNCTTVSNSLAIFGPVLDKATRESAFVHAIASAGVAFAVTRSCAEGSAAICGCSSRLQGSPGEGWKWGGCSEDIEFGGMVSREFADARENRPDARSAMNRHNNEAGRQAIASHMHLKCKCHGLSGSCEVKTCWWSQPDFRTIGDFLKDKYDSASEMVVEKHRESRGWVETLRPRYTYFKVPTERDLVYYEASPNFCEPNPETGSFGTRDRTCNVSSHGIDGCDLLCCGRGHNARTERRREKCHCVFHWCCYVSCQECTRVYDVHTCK
For another test, the target named is Mu-type opioid receptor (Homo sapiens, UniProt P35372). The test is classed as functional, cell-based.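 Also: U2OS cells with beta-arrestin recruitment to OPRM1 by beta-gal complementation.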
Mu-type opioid receptor, sequence (P35372 whole entry): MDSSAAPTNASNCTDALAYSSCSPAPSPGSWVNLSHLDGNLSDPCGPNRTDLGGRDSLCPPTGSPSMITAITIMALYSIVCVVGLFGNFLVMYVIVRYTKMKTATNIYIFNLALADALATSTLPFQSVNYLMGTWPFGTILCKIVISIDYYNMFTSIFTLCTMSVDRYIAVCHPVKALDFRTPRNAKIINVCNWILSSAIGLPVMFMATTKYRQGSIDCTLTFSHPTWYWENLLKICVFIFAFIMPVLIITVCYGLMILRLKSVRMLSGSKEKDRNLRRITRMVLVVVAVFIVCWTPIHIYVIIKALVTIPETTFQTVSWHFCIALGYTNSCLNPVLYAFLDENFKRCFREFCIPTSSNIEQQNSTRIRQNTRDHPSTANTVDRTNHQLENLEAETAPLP
Test [1] addresses 5-hydroxytryptamine receptor 2A (Mus musculus, UniProt P35363). It counts as functional, cell-based.
Test [2] can be described thus: LGR2 antagonists, dose response, cell-based, HEK293, CRE-luciferase reporter, cherry pick (AID 743342). The test is classed as functional.
Test [3] in a line: A549 cell cytotoxicity, dose response, cytotoxicity control, plate reader, cherry-pick, antagonist series (AID 743412). It counts as functional, cell-based.
Test [4] is described as follows: cytotoxicity toward HCT116 cells – cell-based, CellTiter-Glo luminescence, IC50, dose response (AID 1117332). To be noted: HCT-116. It counts as functional. (In general: Cellular ATP, detected with luciferase, serves as a proxy for viable cell number.)
Test [5] in a line: HeLa 2N DNA content increase, dose response, cell-based, IC50 (AID 1117349). The test is classed as functional.
Test [6] can be described thus: HepG2 cell cytotoxicity, dose response, cytotoxicity control for Shn3 inhibitor project, CellTiter-Glo, cherry-picked (AID 624134). The test is classed as functional, cell-based.
Test [7] in a line: CellTiter-Glo luminescent dose response of DLD-1 viability loss (AID 1117352). The test is classed as functional.
Test [8] deals with COUP transcription factor 2 (Homo sapiens, UniProt P24468). Briefly: Luminescence-based cell-based high throughput dose response assay to identify inhibitors of COUP-TFII (NR2F2). It counts as functional.
COUP transcription factor 2, sequence (P24468 whole entry): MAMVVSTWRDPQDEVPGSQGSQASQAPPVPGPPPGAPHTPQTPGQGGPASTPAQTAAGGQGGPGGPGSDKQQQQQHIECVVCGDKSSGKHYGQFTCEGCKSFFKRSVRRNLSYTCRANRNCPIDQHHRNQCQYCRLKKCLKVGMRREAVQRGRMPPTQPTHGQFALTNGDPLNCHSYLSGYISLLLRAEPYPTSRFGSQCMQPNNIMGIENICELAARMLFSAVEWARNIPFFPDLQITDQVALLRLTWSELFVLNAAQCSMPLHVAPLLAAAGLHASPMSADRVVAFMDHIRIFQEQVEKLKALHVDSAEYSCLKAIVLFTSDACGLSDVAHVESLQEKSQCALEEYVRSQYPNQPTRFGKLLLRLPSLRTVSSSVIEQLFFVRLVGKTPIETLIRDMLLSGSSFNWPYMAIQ
Test [9] in a line: HeLa 4N DNA content increase, dose response, cell-based, IC50 (AID 1117351). It counts as functional.
Test [10] can be described thus: Shn3 3'UTR reporter inhibitors, dose response, cell-based, Clone20 osteoblasts, firefly luciferase, cherry-picked (AID 624132).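 Also: firefly luciferase luminescence from reporter carrying the Shn3 3'UTR in osteoblasts.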 It counts as functional.
A short description of test [11]: control 3'UTR Renilla luciferase suppression, dose response, counter-screen for Shn3 inhibitor project, cell-based, Clone20-Shn3RL, cherry-picked (AID 624133). The test is classed as functional.
Test [12] can be described thus: SNU-C1 cell viability reduction, dose response, CellTiter-Glo luminescence (AID 1117323). The test is classed as functional, cell-based.
Test [13] can be described thus: cytotoxicity toward Colo320 cells – cell-based, CellTiter-Glo luminescence, IC50, dose response (AID 1117334). The test is classed as functional. The note with it: COLO 320.
Test [14] can be described thus: Concentration-dependent survival of SW480 colon cancer line, luminescence detection with CellTiter-Glo, half-maximal inhibitory concentration (AID 1117338). It counts as functional.
In another test the target is Galanin receptor type 3 (Homo sapiens, UniProt O60755). The test is described as follows: Fluorescence-based cell-based primary high throughput dose response assay to identify antagonists of the Galanin Receptor 3 (GalR3). The test is classed as functional.
Galanin receptor type 3, sequence (O60755 whole entry): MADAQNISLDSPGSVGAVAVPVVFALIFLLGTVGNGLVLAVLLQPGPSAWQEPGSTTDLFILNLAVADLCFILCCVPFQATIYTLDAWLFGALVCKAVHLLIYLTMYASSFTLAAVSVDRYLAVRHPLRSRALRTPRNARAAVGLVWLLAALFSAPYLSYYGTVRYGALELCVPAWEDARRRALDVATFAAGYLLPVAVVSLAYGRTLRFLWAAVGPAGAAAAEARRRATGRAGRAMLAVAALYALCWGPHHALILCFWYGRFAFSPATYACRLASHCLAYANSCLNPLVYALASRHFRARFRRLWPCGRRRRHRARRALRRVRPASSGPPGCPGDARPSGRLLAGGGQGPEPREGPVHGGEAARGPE
The nature of test [15]: cytotoxicity toward HT-29 cells – cell-based, CellTiter-Glo luminescence, IC50, dose response (AID 1117330). It counts as functional.
The nature of the next test: cells. To be noted: HEK-CNG. It counts as functional, cell-based.
The target of test [16] is Botulinum neurotoxin type F (Clostridium botulinum, UniProt P30996). Briefly: High-throughput multiplex microsphere dose response for inhibitors of toxin protease, specifically Botulinum neurotoxin light chain F protease, compounds from Cherry Pick 02. It counts as functional. To be noted: read-out: EC50_MICROM.
Botulinum neurotoxin type F, sequence (P30996 1-436 limits assumed): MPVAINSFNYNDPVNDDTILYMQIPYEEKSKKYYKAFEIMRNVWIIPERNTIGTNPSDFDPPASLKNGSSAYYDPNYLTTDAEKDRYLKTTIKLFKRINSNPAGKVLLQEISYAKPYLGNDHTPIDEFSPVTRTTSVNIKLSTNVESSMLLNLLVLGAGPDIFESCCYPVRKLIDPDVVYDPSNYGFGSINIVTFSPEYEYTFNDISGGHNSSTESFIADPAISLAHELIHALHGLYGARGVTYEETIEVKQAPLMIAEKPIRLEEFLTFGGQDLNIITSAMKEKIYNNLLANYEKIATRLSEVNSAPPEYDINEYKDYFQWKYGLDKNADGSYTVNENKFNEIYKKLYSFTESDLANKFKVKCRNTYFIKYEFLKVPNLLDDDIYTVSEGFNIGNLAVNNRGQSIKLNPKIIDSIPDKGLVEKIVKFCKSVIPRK
For a further test, the system named is H9c2. Briefly: cells. It counts as functional, cell-based. The note with it: Rattus norvegicus, H9c2, Myocardium.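 Also: confirmatory concentration-response retest of ultra-high-throughput screening hits for modulation of myocardial damage; cell death induced by hydrogen peroxide oxidative stress; compound pretreatment for 60 min then peroxide exposure for 2 h; potency is for protecting the cells against peroxide damage rather than for killing them.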
The test system of test [17] is HEK293. The test is described as follows: HEK cell cytotoxicity by LDH release, dose response, cytotoxicity control for IDE activator project, fluorescence, HEK cells (AID 588440).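 Also: cytotoxicity by LDH release measuring loss of membrane integrity.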 It counts as functional, cell-based. To be noted: Homo sapiens.
Test [18] addresses Broad substrate specificity ATP-binding cassette transporter ABCG2 (Homo sapiens, UniProt Q9UNQ0). The test is described as follows: ABCG2 efflux pump inhibitors, dose response, Ig-MXP3 cells, flow cytometry (AID 1690). The test is classed as functional. (Flow cytometry measures light scatter and fluorescence of single cells or particles in a stream.)
For test [19], the target named is T1, Insulin-degrading enzyme (Homo sapiens, UniProt P14735).
T1 sequence (P14735 whole entry): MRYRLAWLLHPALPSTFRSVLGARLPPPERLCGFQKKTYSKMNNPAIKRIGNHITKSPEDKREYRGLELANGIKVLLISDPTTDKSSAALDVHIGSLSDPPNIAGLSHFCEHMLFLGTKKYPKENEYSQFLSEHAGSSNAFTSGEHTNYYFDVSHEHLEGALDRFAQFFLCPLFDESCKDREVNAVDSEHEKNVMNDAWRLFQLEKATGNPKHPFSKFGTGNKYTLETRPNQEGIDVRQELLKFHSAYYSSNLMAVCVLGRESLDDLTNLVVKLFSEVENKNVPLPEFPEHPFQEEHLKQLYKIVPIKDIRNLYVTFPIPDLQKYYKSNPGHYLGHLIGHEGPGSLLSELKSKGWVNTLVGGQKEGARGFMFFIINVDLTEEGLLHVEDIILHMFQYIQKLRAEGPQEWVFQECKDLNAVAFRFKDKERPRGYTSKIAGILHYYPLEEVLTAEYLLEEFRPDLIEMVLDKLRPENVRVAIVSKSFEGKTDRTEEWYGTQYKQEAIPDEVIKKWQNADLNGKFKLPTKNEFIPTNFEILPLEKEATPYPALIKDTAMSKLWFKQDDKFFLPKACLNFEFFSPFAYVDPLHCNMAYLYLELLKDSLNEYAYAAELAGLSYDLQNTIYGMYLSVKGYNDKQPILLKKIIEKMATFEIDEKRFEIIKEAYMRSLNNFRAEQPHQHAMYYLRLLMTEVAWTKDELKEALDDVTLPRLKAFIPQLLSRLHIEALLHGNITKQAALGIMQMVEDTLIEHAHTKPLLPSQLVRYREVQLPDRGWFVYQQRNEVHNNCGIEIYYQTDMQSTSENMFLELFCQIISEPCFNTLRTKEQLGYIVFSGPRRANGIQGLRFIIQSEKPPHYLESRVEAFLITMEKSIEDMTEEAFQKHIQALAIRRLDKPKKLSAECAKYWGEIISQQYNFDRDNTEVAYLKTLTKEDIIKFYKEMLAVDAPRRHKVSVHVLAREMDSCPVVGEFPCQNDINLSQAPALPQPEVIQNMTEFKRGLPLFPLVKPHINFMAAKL
Briefly: activators of recombinant IDE enzyme, dose response, counter-screen for IDE activator project, biochemical, fluorescence polarization (AID 588681).

In test [20] the target is Beta-lactamase (Salmonella choleraesuis (strain SC-B67), UniProt Q5J463).
Beta-lactamase (Salmonella choleraesuis (strain SC-B67), UniProt Q5J463), sequence (Q5J463 whole entry): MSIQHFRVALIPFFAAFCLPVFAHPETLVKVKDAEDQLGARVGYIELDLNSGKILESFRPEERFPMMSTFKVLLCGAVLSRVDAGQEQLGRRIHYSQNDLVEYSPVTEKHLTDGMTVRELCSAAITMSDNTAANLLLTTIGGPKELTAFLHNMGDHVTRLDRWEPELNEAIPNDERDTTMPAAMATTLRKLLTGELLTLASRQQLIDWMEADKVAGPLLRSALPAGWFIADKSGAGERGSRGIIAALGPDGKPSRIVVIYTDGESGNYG
The test system of test [21] is HEK293. The test is described as follows: optical interference in Abeta FP readout, dose response, artefact control for IDE activator project, biochemical, fluorescence polarization (AID 588442). The test is classed as functional, cell-based. To be noted: Homo sapiens.
Test [22] concerns the target T1, Insulin-degrading enzyme. Briefly: activators of endogenous IDE in HEK cells, dose response, cell-based, fluorescence polarization (AID 588439). It counts as functional.
Test [23] has as its target Beta-lactamase (Pseudomonas aeruginosa, UniProt Q79MP6).
A further test relates to Vero. Briefly: Vero cell toxicity, dose response, cytotoxicity control, plate reader, cherry-pick samples (AID 687020). It counts as functional, cell-based. To be noted: Chlorocebus sabaeus.

5-hydroxytryptamine receptor 2A, sequence (P35363 whole entry): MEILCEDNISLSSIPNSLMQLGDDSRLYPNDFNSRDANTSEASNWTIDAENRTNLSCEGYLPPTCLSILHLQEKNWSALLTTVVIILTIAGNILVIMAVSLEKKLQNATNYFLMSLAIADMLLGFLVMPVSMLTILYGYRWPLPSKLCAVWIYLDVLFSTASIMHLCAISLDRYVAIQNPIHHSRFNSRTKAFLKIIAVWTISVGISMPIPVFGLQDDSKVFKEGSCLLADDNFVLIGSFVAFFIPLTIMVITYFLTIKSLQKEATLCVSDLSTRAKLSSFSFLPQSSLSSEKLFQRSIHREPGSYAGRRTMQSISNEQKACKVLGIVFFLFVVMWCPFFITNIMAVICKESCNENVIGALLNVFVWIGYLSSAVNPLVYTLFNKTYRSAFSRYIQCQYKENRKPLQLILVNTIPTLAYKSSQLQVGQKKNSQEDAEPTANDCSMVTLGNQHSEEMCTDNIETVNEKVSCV
Beta-lactamase (Pseudomonas aeruginosa, UniProt Q79MP6), sequence (Q79MP6 whole entry): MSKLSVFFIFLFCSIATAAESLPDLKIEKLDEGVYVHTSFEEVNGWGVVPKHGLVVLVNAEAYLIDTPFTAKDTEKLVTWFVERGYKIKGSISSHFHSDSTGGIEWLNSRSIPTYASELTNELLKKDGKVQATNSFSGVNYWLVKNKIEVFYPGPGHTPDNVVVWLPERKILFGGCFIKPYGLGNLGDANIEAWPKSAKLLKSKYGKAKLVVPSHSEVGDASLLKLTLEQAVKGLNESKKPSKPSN
Broad substrate specificity ATP-binding cassette transporter ABCG2, sequence (Q9UNQ0 whole entry): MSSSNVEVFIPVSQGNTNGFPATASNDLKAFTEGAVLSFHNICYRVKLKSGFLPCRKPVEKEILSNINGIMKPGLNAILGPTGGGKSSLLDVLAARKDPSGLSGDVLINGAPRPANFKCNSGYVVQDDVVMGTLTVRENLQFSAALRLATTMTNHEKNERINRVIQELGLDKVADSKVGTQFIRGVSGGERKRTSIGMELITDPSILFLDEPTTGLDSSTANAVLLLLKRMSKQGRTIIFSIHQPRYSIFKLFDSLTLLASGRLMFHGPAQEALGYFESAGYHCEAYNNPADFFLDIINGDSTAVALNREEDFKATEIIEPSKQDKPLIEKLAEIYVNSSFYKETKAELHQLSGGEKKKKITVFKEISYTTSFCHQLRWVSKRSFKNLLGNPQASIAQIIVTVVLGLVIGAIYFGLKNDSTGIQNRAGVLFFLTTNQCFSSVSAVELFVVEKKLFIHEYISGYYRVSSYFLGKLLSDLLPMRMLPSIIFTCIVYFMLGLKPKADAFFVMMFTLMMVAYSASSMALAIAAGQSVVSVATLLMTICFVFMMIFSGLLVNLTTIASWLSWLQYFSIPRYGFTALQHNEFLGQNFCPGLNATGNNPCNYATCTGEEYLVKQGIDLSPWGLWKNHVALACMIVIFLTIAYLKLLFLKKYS

As for `CN(C)c1cc(NC(=O)c2cccc(C#N)c2)ncn1`, the IC50 on Protein Wnt-3a was > 21.8 µM (inactive).
Take `O=C(c1ccco1)N1CCN(CC2CC3C=CC2C3)CC1` (centres undefined): the results for the EC50 (on Mu-type opioid receptor; in test [1]) were 92.4 µM (inactive) and 2.96 µM (active), respectively.
With `C[C@H](CO)N1C[C@H](C)[C@H](CN(C)C(=O)Nc2cccc3ccccc23)OCCCC[C@H](C)Oc2ccc(NC(=O)C3CCCCC3)cc2C1=O`, the AC50 in test [2] is 0.747 µM (active); in test [3], 43.9 µM (active).
Take `Cc1nc2ccccc2n1Cc1ccc(Cl)cc1` [CHLORMIDAZOLE]: the IC50 is 1.22 µM (active) in test [4]; > 10 µM (inactive) in [5]; > 20 µM (inactive) in [7]; 10.6 µM (inactive) in [8]; > 10 µM (inactive) in test [9]; > 20 µM (inactive) in test [12]. Further, the IC50 was 15.2 µM (inactive) in test [13], 5.33 µM (inactive) in [14], 0.203 µM (active) on Galanin receptor type 3 and > 20 µM (inactive) in [15]. Further, the AC50 in test [6] is 2.79 µM (active); in [10], 1.46 µM (active); in test [11], 28.2 µM (active). Further, the EC50 in the test “cells” was > 29.9 µM (inactive).
As to `COc1ccc(-c2oc3c(OC)c(OC)c(OC)c(O)c3c(=O)c2OC)cc1OC`, the EC50 in [16] was > 20 µM (inactive). Further, the IC50 with H9c2 is > 79 µM (inactive).
As to `CCCCN(C)C1=CC2=CC(=C(C#N)C#N)CCC2CC1` (centres undefined), the results for the IC50 with HEK293 [17], at Beta-lactamase [20] and at Beta-lactamase [23] were > 89.2 µM (inactive), 1.47 µM (active) and 5.07 µM (active), respectively. For the same molecule, the EC50 in test [18] is 4.42 µM (active); on Insulin-degrading enzyme [19] it was > 54.7 µM (inactive); in the test with HEK293 [21], 1.55 µM (active); at Insulin-degrading enzyme [22], > 54.7 µM (inactive).
For the molecule `CC1CCOC(c2coc3ccccc3c2=O)O1` (centres undefined), in the test on Vero, the AC50 was 24.2 µM (active).
